From the supplement of paper PMC10307832

What was measured:
Assay in all cases: relative viability (nuclei count vs DMSO), 5 days (fraction); higher = more cells survive
[1] = compound: C1=CC=C2C(=C1)N=C(S2)C(C#N)C3=NC(=NC=C3)NCCC4=CN=CC=C4 + NC(=O)Nc1cc(-c2cccc(F)c2)sc1C(=O)N[C@H]1CCCNC1 [AZD7762] (partner 0.2 µM)
In short: (§1)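 Five library-drug doses in √10 steps were combined with a fixed anchor-drug dose, or a single drug was given alone, by pin tool to lung cancer cell lines in 1536-well plates the day after seeding. Nuclei were stained and counted after 5 days. Relative viability is the nuclei count in treated wells over that in vehicle wells, taken as the median of duplicate plates.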

CUDC-101 + Dasatinib = compound: C#Cc1cccc(Nc2ncnc3cc(OC)c(OCCCCCCC(=O)NO)cc23)c1 [CUDC-101] + Cc1nc(Nc2ncc(C(=O)Nc3c(C)cccc3Cl)s2)cc(N2CCN(CCO)CC2)n1 [Dasatinib] (partner 0.075 µM)
In short: as §1

Vandetanib + Pemetrexed = compound: COc1cc2/c(=N/c3ccc(Br)cc3F)nc[nH]c2cc1OCC1CCN(C)CC1 [Vandetanib] + Nc1nc2[nH]cc(CCc3ccc(C(=O)N[C@@H](CCC(=O)O)C(=O)O)cc3)c2c(=O)[nH]1 [Pemetrexed] (partner 0.2 µM)
In short: as §1

[2] = compound: C1=CC=C2C(=C1)N=C(S2)C(C#N)C3=NC(=NC=C3)NCCC4=CN=CC=C4 + CC1(C)CCC(c2ccc(Cl)cc2)=C(CN2CCN(c3ccc(C(=O)NS(=O)(=O)c4ccc(N[C@H](CCN5CCOCC5)CSc5ccccc5)c(S(=O)(=O)C(F)(F)F)c4)cc3)CC2)C1 [Navitoclax] (partner 0.5 µM)
In short: as §1

Cell Line	relative viability ([1]; first compound 0.005 µM)	relative viability ([1]; first compound 0.05 µM)	relative viability ([1]; first compound 0.1581 µM)	relative viability ([1]; first compound 0.5 µM)	relative viability (CUDC-101 + Dasatinib; first compound 0.01 µM)	relative viability (CUDC-101 + Dasatinib; first compound 0.03162 µM)	relative viability (CUDC-101 + Dasatinib; first compound 0.1 µM)	relative viability (CUDC-101 + Dasatinib; first compound 0.3162 µM)	relative viability (CUDC-101 + Dasatinib; first compound 1 µM)	relative viability (Vandetanib + Pemetrexed; first compound 0.02 µM)	relative viability (Vandetanib + Pemetrexed; first compound 0.06325 µM)	relative viability (Vandetanib + Pemetrexed; first compound 0.2 µM)	relative viability (Vandetanib + Pemetrexed; first compound 0.6325 µM)	relative viability (Vandetanib + Pemetrexed; first compound 2 µM)	relative viability ([2]; first compound 0.005 µM)	relative viability ([2]; first compound 0.01581 µM)	relative viability ([2]; first compound 0.05 µM)	relative viability ([2]; first compound 0.1581 µM)	relative viability ([2]; first compound 0.5 µM)	relative viability ([1]; first compound 0.01581 µM)
PC-3 [JPC-3]	0.702	0.822	0.997	0.654	0.954	0.932	0.753	0.483	0.542	1.21	0.937	0.824	0.65	0.374	0.776	0.835	0.731	0.819	0.843	
IA-LM																0.816	0.817	0.826	0.568	
NCI-H520					0.196	0.166	0.192	0.259	0.218	0.705	0.646	0.607	0.783	0.679	0.929	1.25	1.03	1.26	1.19	
A549															1.26	1.19	1.11	1.31	1.29	
BEN	0.759	0.689	0.85	0.774	0.426	0.301	0.346	0.311	0.264	0.725	0.67	0.635	0.714	0.516	0.0669	0.0686	0.0618	0.134	0.0603	0.609
COR-L 105					0.337	0.382	0.277	0.418	0.122	1.17	1.13	1.09	1.07	0.843	0.819	0.753	0.599	0.667	0.729	
NCI-H1734	0.443	0.615	0.566	0.514	0.502	0.43	0.461	0.536	0.376	0.4	0.388	0.41	0.404	0.467	0.58	1.05	0.886	0.932	0.664	0.658
LOU-NH91	0.687	0.734	0.798	0.724	0.596	0.509	0.469	0.486	0.38	0.413	0.381	0.391	0.442	0.431	0.682	0.724	0.578	0.633	0.641	0.758
NCI-H2405	0.705	0.832	0.829	0.48	0.217	0.193	0.228	0.214	0.191	0.987	0.982	1.01	1.08	0.836	0.828	0.936	0.815	0.862	0.859	0.66
HCC-15	1.02	1.25	1.51	1.24	0.641	0.622	0.628	0.672	0.473	0.229	0.226	0.235	0.238	0.225	0.736	0.787	0.664	0.749	0.602	1.23
HCC-44	1.12	1.01	0.997	0.998						0.606	0.699	0.684	0.657	0.635	0.759	1.13	0.906	1.02	0.872	0.984
NCI-H1792		0.8	1.28	0.37	0.764	0.683	0.856	0.819	0.691	0.834	0.733	0.733	0.822	0.771		0.571	0.631	0.961	0.451	0.631
NCI-H2347	0.782	0.716	0.839	0.729	0.308	0.323	0.261	0.337	0.346	0.433	0.393	0.443	0.443	0.427	0.727	0.891	0.834	0.827	0.735	0.815
SW 900	0.693	0.548	0.622	0.533	0.455	0.68	0.791	0.602	0.618	0.472	0.464		0.483	0.464						0.634
RERF-LC-KJ	0.984	1.02	1.23	0.964	0.793	0.891	0.765	0.793	0.421	0.46	0.459	0.497	0.418	0.46	1.29	0.811	0.804	0.843	0.875	0.977
NCI-H522	0.885	0.768	0.787	0.839	0.931	0.758	0.928	0.842	0.596	0.941	1.02	0.957	1.25	0.999						0.654
NCI-H1666	0.956	0.817	0.805	0.803	0.903	0.786	0.814	0.911	0.795	0.793	0.879	0.881	0.803	0.874	0.841	0.937	0.965	1.05	0.797	0.764
LC-2-ad	0.674	0.83	0.968	0.692	0.737	0.879	0.638	0.69	0.298	0.257	0.278	0.273	0.259	0.264	0.358	0.497	0.447	0.581	0.351	0.847
NCI-H2023					0.564	0.635	0.616	0.748	0.461	0.182	0.197		0.202	0.252	0.971	0.979	0.948	1.13	0.707	
